Assay results from publication PMC6272854, “Two New Bioactive α-Pyrones from Hypericum japonicum” (Molecules, 2016).

Experiments:
[1] = tested on: Kaposi's sarcoma associated herpesvirus (KSHV) lytic replication; test: in vitro; assay type: cell-based; conditions: human; CC50 (iSLK.219 cells) / IC50 (KSHV lytic replication); read-out: Selective Index (CC50/IC50)
Text: (§1) Human gamma herpes viruses such as Kaposi’s sarcoma-associated herpes virus (KSHV) is a type of pathogenic virus related to Kaposi’s sarcoma, like epidemic KS, posttransplant KS, multicentric Castleman’s disease, and primary effusion lymphoma. Anti-infection towards lytic replication of KSHV plays a pivotal role as decreased a risk of KS, which were evidenced in cases of AIDS-associated epidemic KS patients. In our exhaustive study to explore bioactivities of metabolites, an inhibition assay on lytic replication of KSHV was investigated for compounds 1 and 2 referring to the previous experiments. […] The details of the dose-dependent manner were shown in Figure S1, Supplementary Materials. More elaborate procedures of anti-KSHV assay were also stated in Supplementary Materials.
(§2) Figure 5 The effects of positive control cidofovir (CDV), 1 and 2 on human iSLK.219 cells viabilities and on lytic replication of KSHV infecting Vero cells were measured in vitro.
(§3) Human iSLK.219 cells were used to determine the antiviral activity of desired compounds against KSHV. The cells harbor the rKSHV.219 virus that encodes green fluorescent protein (GFP) under control of the elongation factor 1α promoter (EF-1α) and lytic replication of KSHV was reactivated with 1 µg/mL doxycycline (Dox) (Beyotime) and 1.2 mM sodium butyrate (NaB) (Sigama). Cells grown to 70% confluence 96-well tissue culture plates were treated with indicated concentrations of compounds in present of Dox and NaB. Then cell viability was assessed at 48 h post drugs-induction by AlamarBlue® Cell Viability Assay (Invitrogen) according to the manufacturer’s protocol. The luminescent signal was measured using the Envison 2102 Multilabel Reader (Perkin Elmer, Waltham, MA, USA). The 50% cytotoxic concentration (CC50) for each compound was calculated from these dose-response curves using Graphpad5.0 Prism. The results were presented as mean values with standard deviations (n = 3) […]
(§4) The antiviral effects of compounds on KSHV were determined by infectivity assay as previously described. The supernatants from iSLK.219-treated or untreated with the compounds in the presence of Dox and NaB were collected at 48 h. Then, the supernatants were used to infect the Vero cells seeded in a 96-well plate as previously reported using centrifugation at 1500× g for 60 min [4]. The supernatants were then removed and replaced with flash DMEM medium. At 48 h, the expression of GFP per well in Vero cells was detected and analyzed using the Operetta High-Content Screening System (HCS) (Perkin Elmer). Nine image fields per well were recorded by the automated microscope based HCS and the GFP intensity per well was calculated using the Harmony 3.5 software (Perkin Elmer). Data were normalized as the fold change compared to the DMSO control. The IC50 (50% effective concentration) values correspond to compound concentrations required to reduce quantitative expression of the intensity of GFP by 50%. The results are presented as the mean values with […]
(§5) Figure S1. HRESIMS spectrum of japopyrone A (1).

[2] = tested on: Kaposi’s sarcoma associated herpesvirus (KSHV); test: microbe, parasite or virus in culture; assay type: cell-based; conditions: Human gammaherpesvirus 8, Vero, 48 h
Text: as §1, §2, §3, §4, §5

[3] = Cell viability of iSLK.219 cells (AlamarBlue Cell Viability Assay); assay type: cell-based; conditions: iSLK.219 cells harbouring rKSHV.219 virus, human iSLK.219 cells, in presence of Dox and NaB
Protocol: as §2, §3
as §4, with “control.” for “control. The IC50 (50% effective concentration) values correspond to compound concentrations required to reduce quantitative expression of the intensity of GFP by 50%. The results are presented as the mean values with”

[4] = Cytotoxicity assay against human cancer cell line HL-60; assay type: cell-based; conditions: HL-60 cells
Text: (§6) Natural products have provided a rich resource for the discovery of new drugs, innovative therapeutic agents, and lead structures. In our studious research towards the discovery for new lead compounds and useful bioactivities from Chinese traditional herbs, several bioactivity screenings such as cytotoxicity assays against five human cancer cell lines (HL-60, SMMC-7721, A-549, MCF-7, and SW480), inhibitory activities on NO production, and inhibitory activities on β-site amyloid precursor protein cleaving enzyme 1 (BACE1), were carried out for compounds 1 and 2.

[5] = Cytotoxicity assay against human cancer cell line SMMC-7721; assay type: cell-based; conditions: SMMC-7721 cells
Text: as §6

[6] = Cytotoxicity assay against human cancer cell line A-549; assay type: cell-based; conditions: A-549 cells
Text: as §6

[7] = Cytotoxicity assay against human cancer cell line MCF-7; assay type: cell-based; conditions: MCF-7 cells
Text: as §6

[8] = Cytotoxicity assay against human cancer cell line SW480; assay type: cell-based; conditions: SW480 cells
Text: as §6

NO production = NO production inhibition assay; assay type: cell-based
Text: as §6

[9] = molecular target: β-site amyloid precursor protein cleaving enzyme 1 (BACE1) (Homo sapiens, UniProt P56817); test: BACE1 inhibition assay; assay type: biochemical
Chain of β-site amyloid precursor protein cleaving enzyme 1 (BACE1) (P56817 22-501 limits assumed, species assumed): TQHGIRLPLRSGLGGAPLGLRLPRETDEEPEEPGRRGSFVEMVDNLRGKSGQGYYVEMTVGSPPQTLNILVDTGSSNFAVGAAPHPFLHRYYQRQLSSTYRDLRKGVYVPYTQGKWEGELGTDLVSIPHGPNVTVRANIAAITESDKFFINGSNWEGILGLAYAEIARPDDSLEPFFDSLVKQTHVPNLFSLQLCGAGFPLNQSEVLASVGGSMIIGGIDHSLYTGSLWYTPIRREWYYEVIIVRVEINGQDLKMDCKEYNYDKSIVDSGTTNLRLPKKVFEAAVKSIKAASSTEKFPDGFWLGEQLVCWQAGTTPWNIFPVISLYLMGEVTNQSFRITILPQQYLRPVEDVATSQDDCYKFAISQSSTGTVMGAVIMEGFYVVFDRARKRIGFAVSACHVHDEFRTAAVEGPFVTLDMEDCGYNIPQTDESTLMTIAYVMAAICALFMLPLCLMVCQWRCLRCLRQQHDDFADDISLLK
Text: as §6

| Compound | selectivity ratio at 48 h [1] | IC50 [2] [µM] | CC50 at 48 h [3] [µM] | IC50 [4] [µM] | IC50 [5] [µM] | IC50 [6] [µM] | IC50 [7] [µM] | IC50 [8] [µM] | IC50 (NO production) [µM] | IC50 [9] [µM] |
| --- | --- | --- | --- | --- | --- | --- | --- | --- | --- | --- |
| Nc1ccn(C[C@@H](CO)OCP(=O)(O)O)c(=O)n1 [CDV, cidofovir, reference compound] | > 250 | < 0.004 | > 1 |  |  |  |  |  |  |  |
| COc1cc(-c2cc3c(c(=O)o2)C(C)(C)[C@H](C)O3)ccc1O [Compound 1, japopyrone A] | > 2.34 | 85.3 | > 200 | > 40 | > 40 | > 40 | > 40 | > 40 | > 25 | > 40 |
| COc1ccc(-c2cc3c(c(=O)o2)C(C)(C)[C@H](C)O3)cc1OC [Compound 2, japopyrone B] | > 6.79 | 29.5 | > 200 | > 40 | > 40 | > 40 | > 40 | > 40 | > 25 | > 40 |
